The Ki is a dissociation constant, usually derived from enzyme kinetics or from competition with a known ligand. A low value points to higher affinity.

This test addresses Sigma non-opioid intracellular receptor 1 (Cavia porcellus) (UniProt Q60492). In words: Displacement of [3H](+)-pentazocine from Sigma opioid receptor type 1 in guinea pig brain membrane.

Sequence of Sigma non-opioid intracellular receptor 1 (Cavia porcellus) (Q60492 whole entry, looked up): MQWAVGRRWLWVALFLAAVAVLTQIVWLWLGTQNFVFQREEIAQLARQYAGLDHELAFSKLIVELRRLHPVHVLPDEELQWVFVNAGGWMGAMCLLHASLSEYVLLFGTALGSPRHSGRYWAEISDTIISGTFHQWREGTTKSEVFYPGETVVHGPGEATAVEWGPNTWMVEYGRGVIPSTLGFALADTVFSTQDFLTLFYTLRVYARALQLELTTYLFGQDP

Consider `COc1cccc(CCN(C)CCN2CCCC2)c1` [[2-(3-Methoxy-phenyl)-ethyl]-methyl-(2-pyrrolidin-1-yl-ethyl)-amine], for which the affinity, expressed as Ki, was 23.8 nM.

The compound `CN(CCc1ccccc1[N+](=O)[O-])CCN1CCCC1` [Methyl-[2-(2-nitro-phenyl)-ethyl]-(2-pyrrolidin-1-yl-ethyl)-amine] came in with a Ki of 7.7 nM.

`COc1cccc(CC(=O)N(C)CCN2CCCC2)c1` [2-(3-Methoxy-phenyl)-N-methyl-N-(2-pyrrolidin-1-yl-ethyl)-acetamide] registered an inhibitory constant (Ki) of 3100 nM.

In turn, `COc1ccc(CC(=O)N(C)CCN2CCCC2)cc1` [2-(4-Methoxy-phenyl)-N-methyl-N-(2-pyrrolidin-1-yl-ethyl)-acetamide] displayed a Ki of 2220 nM.

`CN(CCc1cccc([N+](=O)[O-])c1)CCN1CCCC1` [Methyl-[2-(3-nitro-phenyl)-ethyl]-(2-pyrrolidin-1-yl-ethyl)-amine] showed an inhibition constant Ki of 6.4 nM. Compared with the last compound, the Ki is about 350-fold lower.

In the case of `COc1ccc(CCN(C)CCN2CCCC2)cc1` [[2-(4-Methoxy-phenyl)-ethyl]-methyl-(2-pyrrolidin-1-yl-ethyl)-amine], the Ki was found to be 30.3 nM.

The compound `COc1ccccc1CCN(C)CCN1CCCC1` [[2-(2-Methoxy-phenyl)-ethyl]-methyl-(2-pyrrolidin-1-yl-ethyl)-amine] had an inhibitory constant (Ki) of 15.7 nM.

For the compound `CN(CCc1ccc([N+](=O)[O-])cc1)CCN1CCCC1` [Methyl-[2-(4-nitro-phenyl)-ethyl]-(2-pyrrolidin-1-yl-ethyl)-amine], the Ki was 4.3 nM.

As for `CN(CCN1CCCC1)C(=O)Cc1cccc([N+](=O)[O-])c1` [N-Methyl-2-(3-nitro-phenyl)-N-(2-pyrrolidin-1-yl-ethyl)-acetamide], the inhibitory constant (Ki) was found to be 1850 nM.

As for `CN(CCc1ccccc1N)CCN1CCCC1` [2-{2-[Methyl-(2-pyrrolidin-1-yl-ethyl)-amino]-ethyl}-phenylamine], the affinity, expressed as Ki, was 291 nM.

With `CN(CCc1cccc(N)c1)CCN1CCCC1` [3-{2-[Methyl-(2-pyrrolidin-1-yl-ethyl)-amino]-ethyl}-phenylamine], the Ki amounted to 579 nM. Against the preceding compound, the Ki is about 2-fold higher.

`CN(CCN1CCCC1)C(=O)Cc1ccccc1[N+](=O)[O-]` [N-Methyl-2-(2-nitro-phenyl)-N-(2-pyrrolidin-1-yl-ethyl)-acetamide] came in with a Ki of 736 nM.

For the compound `CN(CCc1ccc(N)cc1)CCN1CCCC1` [4-{2-[Methyl-(2-pyrrolidin-1-yl-ethyl)-amino]-ethyl}-phenylamine], the inhibition constant (Ki) was 276 nM. This Ki lies about 2.7-fold lower than the previous one.

In turn, `CN(CCN1CCCC1)C(=O)Cc1ccc([N+](=O)[O-])cc1` [N-Methyl-2-(4-nitro-phenyl)-N-(2-pyrrolidin-1-yl-ethyl)-acetamide] yielded a Ki of 869 nM.

The values are drawn from BindingDB's records for doi:10.1021/jm9600813 (National Institute of Diabetes and Digestive and Kidney …, 1996).
